The values below come from PMC10011573, “Development of novel broad-spectrum antimicrobial lipopeptides derived from plantaricin NC8 β” (Scientific Reports, 2023).

Non-standard residues stand in square brackets, D forms with d. Residues, ends and D or L forms follow the SMILES beside them. *: point of attachment. Heptanoyl = CCCCCCC(=O)*; Hexanoyl = CCCCCC(=O)*

Data set [1] is described as follows: Carboxyfluorescein release assay, mammalian liposome model. It is filed as biochemical. Conditions: 65:5:30 POPC:POPS:Chol. liposomes, 25 µM lipid, 10 mM PBS pH 7.4, 10^–5–10^2 µM peptide, 60 min, fluorescence, Hill fit, n = 3; read-out: EC50 Mammalial (concentration that triggers 50% CF release). As to the method:
(§1) Liposomes were prepared by thin-film hydration method. Lipids stock solutions (10 mg/ml in chloroform, Avanti Polar Lipids, Inc., Alabaster, United States) of the lipids 1-palmitoyl-2-oleoyl-sn-glycero-3-phosphocholine (POPC), 1-palmitoyl-2-oleoyl-sn-glycero-3-phospho-L-serine (POPS), 1-Hexadecanoyl-2-(9Z-Octadecenoyl)-sn-Glycero-3-Phosphoglycerol (POPG) and Cholesterol (Chol) were employed. Bacterial liposomes were prepared with a 75:25 ratio of POPC:POPG and mammalian liposomes were prepared with a 65:5:30 ratio of POPC:POPS:Chol. Lipid solutions were thoroughly homogenised, and the solvent was evaporated with the use of a dry N2 steam to yield a lipid cake. […] The lipid film was subsequently hydrated with a 5(6)-CF solution (50 mM CF, 10 mM PBS, 90 mM NaCl, pH 7.4). Following a 10 min incubation on orbital shaker (50 min^−1), the solution was vortexed for 60 s on medium speed. A mini extruder (Avanti Polar Lipids, Inc., United States) was employed and 21 extrusions were performed through a 0.1 µm filter membrane (Nuclepore track-etched hydrophilic membrane, Cytiva, Whatman, MA, United States), resulting in monodispersed unilamellar liposomes. Directly before use the liposomes were purified from unencapsulated CF by filtration through a gel filtration column (PD Minitrap G-25 column, Cytiva, United States), against PBS buffer (10 mM, pH 7.4).
(§2) Peptide and lipopeptide activity towards liposome models were evaluated using a carboxyfluorescein (CF) release assay. Liposomes were diluted in PBS (10 mM, pH 7.4) to a final lipid concentration of 25 µM and incubated with peptides (10^–5–10^2 µM) in a 96-well plate (n = 3). CF release was monitored using an Infinite M1000 PRO plate reader every 2.5 min for 1 h. Full (100%) CF release was obtained by addition of 1% Triton X-100 solution followed by 10 min incubation. CF release percentage was evaluated according to the formula 100 * (F − F0)/(FT − F0), where F indicates the instantaneous fluorescence, FT the total fluorescence and F0 the background fluorescence prior to peptide addition. Data were fitted to a Hill-1 curve using MATLAB R2019a (The MathWorks Inc., Natick, Massachusetts, United States) and the half maximum effective concentration (EC50) was extracted.

The nature of data set [2]: Carboxyfluorescein release assay, bacterial liposome model. The class given is biochemical. Conditions: 75:25 POPC:POPG liposomes, 25 µM lipid, 10 mM PBS pH 7.4, 10^–5–10^2 µM peptide, 60 min, fluorescence, Hill fit, n = 3; read-out: EC50 Bacterial (concentration that triggers 50% CF release). On the procedure: as §1, §2
The next data set deals with human erythrocytes. Kind of data set: Hemolytic activity. Conditions: 15% suspension in PBS, 1 h, 37 °C, absorbance 540 nm, highest tested concentration 100 µM. The class given is cell-based. As to the method:
The hemolytic activity of the lipopeptides was investigated by collecting blood from healthy volunteers in heparinized vacutainers. Briefly, the blood was centrifuged at 600 × g for 5 min and the erythrocyte pellet was washed three times in PBS. The cells were then suspended in PBS and added to 96-well plates (15% erythrocyte suspension/well), containing the lipopeptides with two-fold serial dilution. The plates were incubated for 1 h at 37 °C followed by centrifugation for 5 min at 900×g and absorbance measurement of the supernatants at 540 nm. Hemolytic activity (%) was calculated by subtracting the negative control from all values and normalization against the positive control (0.5% Triton X-100), that was set to 100%. All experiments, each in duplicate, were repeated three times.

In data set [3] the test system is S. aureus (ATCC 29213, MSSA). Conditions: ATCC 29213, 20 h. As to the method:
(§3) S. aureus (ATCC 29213, MSSA, ATCC, Manassas, VA), E. coli (K-12 MG1655) and clinical isolates of S. aureus, E. coli, E. faecium, K. pneumoniae, A. baumannii, P. aeruginosa and E. cloacae obtained from the Department of Laboratory Medicine at Örebro University Hospital were streaked on Luria–Bertani (LB) agar plates and incubated at 37 °C overnight. Single colonies were inoculated into 5 ml of LB broth and incubated on a shaker (400 rpm) at 37 °C overnight. The bacterial concentrations were determined by viable count and were adjusted to correlate with approximately 10^9 CFU/ml.
(§4) The broth microdilution method was used to determine minimal inhibitory concentration (MIC) and minimal bactericidal concentration (MBC), in accordance with the EUCAST standards for the broth microdilution method. Two-fold serial dilutions of the lipopeptides were used, and the final concentrations ranged from 0.19 to 100 µM. In brief, two-fold serial dilutions of the lipopeptides were performed in a 96-well plate in PBS, with a final volume of 100 µl per well, after which 100 µl of LB-broth media containing approximately 5 × 10^5 CFU/ml of bacteria was added to each well. The plate was then incubated for 20 h in 37 °C on a shaker (400 rpm). The effect of lipopeptide-antibiotic combinations was investigated by performing checkerboard assays. The assays were performed in accordance with the MIC and MBC tests conducted above, but with horizontal and longitudinal two-fold serial dilutions of the tested compounds. […] The fractional inhibitory concentration (FIC) and fractional bactericidal concentration (FBC) were calculated by the equation (MIC or MBC of peptide in combination/MIC or MBC of peptide alone) + (MIC or MBC of antibiotic in combination/MIC or MBC of antibiotic alone). Synergy was defined as FIC/FBC ≤ 0.5, additive when 0.5 < FIC/FBC ≤ 1, indifferent when 1 < FIC/FBC < 2 and antagonistic when FIC/FBC ≥ 2. All experiments were repeated at least three times.

A further data set deals with E. coli (K-12 MG1655). Conditions: Table 3; K-12 MG1655; broth microdilution, 50:50 PBS/LB-broth, 200 µL, 20 h, 37 °C. As to the method: as §3, §4
Another data set concerns S. aureus (ATCC 29213). The class given is cell-based. Conditions: Table 6; ATCC 29213; checkerboard assay, 50:50 PBS/LB-broth, 200 µL. As to the method:
as §4, with “Two-fold serial dilutions of the lipopeptides were used, and the final concentrations ranged from 0.19 to 100 µM.” left out, “Synergy was defined as FIC/FBC ≤ 0.5, additive when 0.5 < FIC/FBC ≤ 1, indifferent when 1 < FIC/FBC < 2 and antagonistic when FIC/FBC ≥ 2.” left out

On to `CCCCCC(=O)N[C@H](CC(C)C)C(=O)NCC(=O)N[C@H](CC(C)C)C(=O)N[C@H](CCCCN)C(=O)N[C@H](CC(C)C)C(=O)N[C@H](CC(C)C)C(=O)N[C@H](Cc1c[nH]c2ccccc12)C(=O)N[C@H](CO)C(=O)N[C@H](C)C(=O)N[C@H](Cc1ccc(O)cc1)C(=O)N[C@H](CCCCN)C(=O)N[C@H](Cc1c[nH]cn1)C(=O)N[C@H](CCCNC(=N)N)C(=O)N[C@H](CCCCN)C(=O)N[C@@H](C(=O)N[C@H](CC(C)C)C(N)=O)[C@H](C)O` [D-6-C6-Leu] (Hexanoyl-[dL]G[dL][dK][dL][dL][dW][dS][dA][dY][dK][dH][dR][dK][dT][dL]-NH2), for which the EC50 in data set [1] is 1220 nM. Also, in data set [2], the EC50 stood at 130 nM. The “HC, hemolytic concentration at 5% hemolytic activity” value (“HC … at 5% hemolytic activity” below) in the data set on human erythrocytes was determined as 65 µM. In addition, in data set [3], the “S. aureus MBC” value is reported as 1.5 µM and the “S. aureus MIC” value is 1.5 µM. Besides, in the data set on E. coli (K-12 MG1655), the “E. coli MBC” value came out at 3.1 µM and the “E. coli MIC” value amounted to 3.1 µM.
Regarding `CCCCCC(=O)N[C@H](CC(C)C)C(=O)NCC(=O)N[C@@H](C(=O)N[C@H](CCCCN)C(=O)N[C@@H](C(=O)N[C@H](CC(C)C)C(=O)N[C@H](Cc1c[nH]c2ccccc12)C(=O)N[C@H](CO)C(=O)N[C@H](C)C(=O)N[C@H](Cc1ccc(O)cc1)C(=O)N[C@H](CCCCN)C(=O)N[C@H](Cc1c[nH]cn1)C(=O)N[C@H](CCCNC(=N)N)C(=O)N[C@H](CCCCN)C(=O)N[C@@H](C(=O)N[C@@H](C(N)=O)[C@H](C)CC)[C@H](C)O)[C@H](C)CC)[C@H](C)CC` [D-6-C6] (Hexanoyl-[dL]G[dI][dK][dI][dL][dW][dS][dA][dY][dK][dH][dR][dK][dT][dI]-NH2), the EC50 in data set [1] is 4990 nM. In addition, in data set [2], the EC50 came to 130 nM. Moreover, the “HC … at 5% hemolytic activity” value with human erythrocytes is reported as greater than 100 µM. Also, in data set [3], the “S. aureus MBC” value is recorded as 3.1 µM and the “S. aureus MIC” value was 3.1 µM. In addition, in the data set on E. coli (K-12 MG1655), the “E. coli MBC” value worked out at 3.1 µM and the “E. coli MIC” value was 3.1 µM.
Take `CCCCCCC(=O)N[C@H](CC(C)C)C(=O)NCC(=O)N[C@H](CC(C)C)C(=O)N[C@H](CCCCN)C(=O)N[C@H](CC(C)C)C(=O)N[C@H](CC(C)C)C(=O)N[C@H](Cc1c[nH]c2ccccc12)C(=O)N[C@H](CO)C(=O)N[C@H](C)C(=O)N[C@H](Cc1ccc(O)cc1)C(=O)N[C@H](CCCCN)C(=O)N[C@H](Cc1c[nH]cn1)C(=O)N[C@H](CCCNC(=N)N)C(=O)N[C@H](CCCCN)C(=O)N[C@@H](C(=O)N[C@H](CC(C)C)C(N)=O)[C@H](C)O` [D-6-C7-Leu] (Heptanoyl-[dL]G[dL][dK][dL][dL][dW][dS][dA][dY][dK][dH][dR][dK][dT][dL]-NH2): the EC50 in data set [1] amounted to 1020 nM. For the same compound, the EC50 in data set [2] is 130 nM. Besides, in the data set on human erythrocytes, the “HC … at 5% hemolytic activity” value came out at 35 µM. Also, in data set [3], the “S. aureus MBC” value stood at 1.5 µM and the “S. aureus MIC” value is given as 1.5 µM. In addition, in the data set on E. coli (K-12 MG1655), the “E. coli MBC” value came out at 3.1 µM and the “E. coli MIC” value is 3.1 µM.
In the case of `CCCCCCC(=O)N[C@H](CC(C)C)C(=O)NCC(=O)N[C@@H](C(=O)N[C@H](CCCCN)C(=O)N[C@@H](C(=O)N[C@H](CC(C)C)C(=O)N[C@H](Cc1c[nH]c2ccccc12)C(=O)N[C@H](CO)C(=O)N[C@H](C)C(=O)N[C@H](Cc1ccc(O)cc1)C(=O)N[C@H](CCCCN)C(=O)N[C@H](Cc1c[nH]cn1)C(=O)N[C@H](CCCNC(=N)N)C(=O)N[C@H](CCCCN)C(=O)N[C@@H](C(=O)N[C@@H](C(N)=O)[C@H](C)CC)[C@H](C)O)[C@H](C)CC)[C@H](C)CC` [D-6-C7] (Heptanoyl-[dL]G[dI][dK][dI][dL][dW][dS][dA][dY][dK][dH][dR][dK][dT][dI]-NH2), the EC50 in data set [1] turned out to be 1470 nM. In addition, the EC50 in data set [2] worked out at 290 nM. For the same compound, in the data set on human erythrocytes, the “HC … at 5% hemolytic activity” value is recorded as 65 µM. Further, in data set [3], the “S. aureus MBC” value is reported as 3.1 µM and the “S. aureus MIC” value came to 1.5 µM. In the data set with E. coli (K-12 MG1655), the “E. coli MBC” value is on record as 6.2 µM and the “E. coli MIC” value came to 3.1 µM.
Consider `CN(C)[C@@H]1C(O)=C(C(N)=O)C(=O)[C@@]2(O)C(O)=C3C(=O)c4c(O)cccc4[C@@](C)(O)[C@H]3C[C@@H]12` [Tetracycline], for which, in the data set with S. aureus (ATCC 29213), the “S. aureus MBC, antibiotic alone” value came to 8 µg/mL and the “S. aureus MIC, antibiotic alone” value was 0.5 µg/mL.
On the same counts, the results for `CN[C@H](CC(C)C)C(=O)N[C@H]1C(=O)N[C@@H](CC(N)=O)C(=O)N[C@H]2C(=O)N[C@H]3C(=O)N[C@H](C(=O)N[C@H](C(=O)O)c4cc(O)cc(O)c4-c4cc3ccc4O)[C@H](O)c3ccc(c(Cl)c3)Oc3cc2cc(c3O[C@@H]2O[C@H](CO)[C@@H](O)[C@H](O)[C@H]2O[C@H]2C[C@](C)(N)[C@H](O)[C@H](C)O2)Oc2ccc(cc2Cl)[C@H]1O` [Vancomycin] are 0.78 µg/mL and 0.78 µg/mL.
